Earlier results in patent US20250144122A1, “Scent-Changing Ointment & Method of Making The Same” (priority 2023, published 2025).

Experiments:
[1] = in vivo
[2] = topical application, 3.5% gel

## CC(C)[C@@H]1CC[C@@H](C)C[C@H]1O [(l)-menthol]
[1]
  analgesic effect (pain threshold): able to increase pain threshold

## CC1CC[C@H](C(C)C)[C@@H](O)C1 (stereo partly shown) [(d)-menthol]
[1]
  analgesic effect (pain threshold): completely devoid of any analgesic effect

## CC1CCC(C(C)C)C(O)C1 (stereo not shown) [menthol, Menthol]
[2]; at 10 minutes after application
  blood flow remains reduced: 20%
[2]; within 60 seconds of application
  reduces blood flow: 35%
